Among the test systems are COLO 205 colon; SK-MEL-28 melanoma; SNB-75 CNS; SF-295 CNS; SF-539 CNS; SK-MEL-2 melanoma; U251 CNS; MOLT-4 leukemia; UACC-62 melanoma; A549 NSCLC.
Common to all, as to assay: NCI tumour cell line growth inhibition, 48 h

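Protocol summary: plate cells (96-well), add compound at 5 concentrations, incubate 48 h, interpolate endpoints linearly. Here, GI50 denotes the concentration required for 50% inhibition of growth. Definition used: TGI = concentration required for complete inhibition of growth.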

For the molecule `COc1ccc(/C(C#N)=C2C=C/C(=N/O)c3ccccc3\2)cc1`, the GI50 with COLO 205 colon is 1.34 µM; in the assay with SK-MEL-28 melanoma, 1.22 µM; with SNB-75 CNS it was 0.259 µM; in the assay on SF-295 CNS it was 0.687 µM; in the assay on SF-539 CNS, 0.2 µM; with SK-MEL-2 melanoma, 0.415 µM. Besides, the GI50 was 0.446 µM in the assay with U251 CNS, 0.357 µM with MOLT-4 leukemia, 0.48 µM in the assay with UACC-62 melanoma and 0.339 µM in the assay with A549 NSCLC. The TGI in the assay with COLO 205 colon stood at 3.52 µM; in the assay on SK-MEL-28 melanoma it was 20 µM; in the assay with SNB-75 CNS, 11.5 µM; with SF-295 CNS, 13 µM; in the assay on SF-539 CNS it was 0.67 µM; with SK-MEL-2 melanoma, 12.3 µM. Further, the TGI is 15.1 µM in the assay on U251 CNS, 12.6 µM with MOLT-4 leukemia, 7.47 µM in the assay with UACC-62 melanoma and 13.4 µM in the assay with A549 NSCLC.

For the molecule `CCc1nc(N)nc(N)c1-c1ccc(N2CCNCC2)cc1`, the TGI with COLO 205 colon is 41.1 µM; in the assay on SK-MEL-28 melanoma it was above 100 µM; with SNB-75 CNS, above 100 µM; in the assay on SF-295 CNS, above 100 µM; with SF-539 CNS, above 100 µM; in the assay on SK-MEL-2 melanoma it was above 100 µM. Further, the TGI in the assay on U251 CNS is above 100 µM; in the assay on MOLT-4 leukemia it was above 91.8 µM; with UACC-62 melanoma, above 100 µM; with A549 NSCLC, above 100 µM.

On to `Cn1nc(-c2ccccc2)c2c(/C=C/c3ccccc3)onc2c1=O`, for which the TGI is above 100 µM in the assay on COLO 205 colon; above 100 µM with SK-MEL-28 melanoma; 64.5 µM with SNB-75 CNS; above 100 µM in the assay on SF-295 CNS; above 100 µM in the assay on SF-539 CNS; above 100 µM in the assay with SK-MEL-2 melanoma. Moreover, the TGI with U251 CNS, in the assay with MOLT-4 leukemia, with UACC-62 melanoma and in the assay with A549 NSCLC was above 100 µM in each case.

Consider `CN1CSC(=S)N(Cc2ccccc2)C1`, for which the GI50 was 15 µM in the assay with COLO 205 colon; 18.4 µM in the assay on SK-MEL-28 melanoma; 5.81 µM in the assay with SNB-75 CNS; 32.7 µM in the assay with SF-295 CNS; 4.46 µM in the assay on SF-539 CNS; 4.64 µM in the assay with SK-MEL-2 melanoma. The GI50 is 13.5 µM in the assay with U251 CNS, 11.2 µM in the assay with MOLT-4 leukemia, 13.4 µM in the assay with UACC-62 melanoma and 30.2 µM in the assay with A549 NSCLC. Besides, the TGI was 32.3 µM with COLO 205 colon; 41 µM in the assay with SK-MEL-28 melanoma; 65.9 µM with SNB-75 CNS; above 100 µM in the assay on SF-295 CNS; 21.3 µM with SF-539 CNS; 18.2 µM in the assay with SK-MEL-2 melanoma. Moreover, the TGI in the assay with U251 CNS was 30.2 µM; in the assay with MOLT-4 leukemia it was above 100 µM; in the assay with UACC-62 melanoma, 36 µM; with A549 NSCLC it was above 100 µM.

As to `c1cc2c(cn1)Nc1ccncc1S2`, the GI50 with COLO 205 colon was 11.8 µM; in the assay on SK-MEL-28 melanoma it was above 100 µM; in the assay with SNB-75 CNS, 43.9 µM; with SF-295 CNS, 52.7 µM; with SF-539 CNS it was 33.8 µM; in the assay with SK-MEL-2 melanoma, 35.2 µM. The GI50 in the assay on U251 CNS is 44.6 µM; in the assay with MOLT-4 leukemia, 33.4 µM; in the assay with UACC-62 melanoma it was 41.9 µM; in the assay with A549 NSCLC it was 32.8 µM. The TGI with COLO 205 colon is 59.5 µM; in the assay with SK-MEL-28 melanoma it was above 100 µM; in the assay on SNB-75 CNS, above 100 µM; in the assay with SF-295 CNS, above 100 µM; with SF-539 CNS it was above 100 µM; with SK-MEL-2 melanoma, above 100 µM. Also, the TGI in the assay with U251 CNS, in the assay with MOLT-4 leukemia, in the assay on UACC-62 melanoma and in the assay with A549 NSCLC was above 100 µM each time.

For the molecule `O=c1[nH]cnc2c1nnn2CCCCCCCCCCCCn1nnc2c(=O)[nH]cnc21`, the TGI in the assay with COLO 205 colon was above 100 µM; with SK-MEL-28 melanoma, above 100 µM; in the assay with SNB-75 CNS, above 57.2 µM; in the assay on SF-295 CNS, 48.4 µM; in the assay on SF-539 CNS it was 54.6 µM; in the assay on SK-MEL-2 melanoma, 51 µM. Besides, the TGI is 52.8 µM in the assay on U251 CNS, above 100 µM with MOLT-4 leukemia, above 78 µM in the assay with UACC-62 melanoma and above 100 µM in the assay with A549 NSCLC.

As for `COc1ccc(N(C)c2nc(N)nc3sc4c(c23)CCCC4)cc1`, the GI50 with COLO 205 colon was 0.021 µM; with SK-MEL-28 melanoma it was 4.3 µM; in the assay with SNB-75 CNS, below 0.01 µM; in the assay on SF-295 CNS, below 0.01 µM; with SF-539 CNS, below 0.01 µM; in the assay with SK-MEL-2 melanoma, 0.0441 µM. The GI50 in the assay with U251 CNS is below 0.0114 µM; in the assay with MOLT-4 leukemia it was below 0.0125 µM; in the assay on UACC-62 melanoma, below 0.01 µM; in the assay on A549 NSCLC, below 0.0149 µM. Moreover, the TGI in the assay on COLO 205 colon is 0.0573 µM; with SK-MEL-28 melanoma, 23.4 µM; with SNB-75 CNS, 13.2 µM; in the assay on SF-295 CNS, 13.1 µM; in the assay with SK-MEL-2 melanoma, 17.2 µM; in the assay on U251 CNS, 15 µM. The TGI in the assay with MOLT-4 leukemia came out at 28 µM; in the assay with UACC-62 melanoma, 15.8 µM; with A549 NSCLC, 17.3 µM.

Values taken from PubChem BioAssay (NCI).
